This is an account of results in patent US5712300A, “Hydroxamic acid derivatives useful for the treatment of diseases related to connective tissue degradation” (priority 1997, dated 1998).

Type in all cases: biochemical
For one test, the target named is T1, Collagenase (Homo sapiens, UniProt P03956).
T1 sequence (P03956 100-469): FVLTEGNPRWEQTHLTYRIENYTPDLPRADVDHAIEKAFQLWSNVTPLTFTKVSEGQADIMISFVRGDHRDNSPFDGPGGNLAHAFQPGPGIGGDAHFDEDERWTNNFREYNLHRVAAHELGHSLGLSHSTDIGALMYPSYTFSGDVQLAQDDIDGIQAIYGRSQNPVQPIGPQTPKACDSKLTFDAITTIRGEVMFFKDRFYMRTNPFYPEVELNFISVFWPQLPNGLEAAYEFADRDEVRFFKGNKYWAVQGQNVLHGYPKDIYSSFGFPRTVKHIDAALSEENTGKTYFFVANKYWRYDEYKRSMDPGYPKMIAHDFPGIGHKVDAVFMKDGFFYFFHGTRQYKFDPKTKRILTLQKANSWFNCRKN
Briefly: MMP inhibition by particle concentration fluorescence technique (collagenase). Particulars: pH 7.5; 15 min enzyme preincubation; substrate 1-3 h at room temperature; read-out: MMP Inhibition Constants, Collagenase Ki. As to the method:
(§1) Inhibitory activity is evaluated in one or more of the MMP enzymes (stromelysin, gelatinase, and collagenase) in vitro using a particle concentration fluorescence techniques. An inhibitor binds to MMP enzymes prevents the degradation of a substrate of stromelysin, gelatinase, or collagenase. The substrate is attached with a fluorescein and a biotin. The intact substrate then binds to an avidin-coated particle via the biotin moiety. Once the particle is washed and dried, a fluorescent signal is generated since the fluorescent group is attached to the particle. Without an inhibitor present, the substrate is degraded by MMP enzymes and the fluorescein group is removed, therefore, no fluorescent signal can be detected. Testing compounds are dissolved in DMSO to the desired concentration, then the solutions are diluted to 1:5 with MMP buffer (50 mM Tris-HCl, pH 7.5; 150 mM NaCl; 0.02% NAN3). Serial two-fold dilutions of each compound are prepared. A concentrated, activated enzyme solution is transferred into each plate of the testing compounds, and the mixture is incubated at room temperature for 15 minutes. Thawed MMP substrate is then added into all plates, and the plates are incubate in the dark for 1-3 hours at room temperature. At this point, the substrate mixture is reacted with 0.1% avidin-coated polystyrene particles.

A further test concerns the target Gelatinase. In words: MMP inhibition by particle concentration fluorescence technique (gelatinase). Particulars: pH 7.5; 15 min enzyme preincubation; substrate 1-3 h at room temperature; read-out: MMP Inhibition Constants, Gelatinase Ki. As to the method:
as §1

The target in the next test is Stromelysin (Homo sapiens, UniProt P08254). In words: MMP inhibition by particle concentration fluorescence technique (stromelysin). The conditions noted are these: pH 7.5; 15 min enzyme preincubation; substrate 1-3 h at room temperature; read-out: MMP Inhibition Constants, Stromelysin Ki. The text has this: An inhibitor binds to MMP enzymes prevents the degradation of a substrate of stromelysin, gelatinase, or collagenase. The substrate is attached with a fluorescein and a biotin. The intact substrate then binds to an avidin-coated particle via the biotin moiety. Once the particle is washed and dried, a fluorescent signal is generated since the fluorescent group is attached to the particle. Without an inhibitor present, the substrate is degraded by MMP enzymes and the fluorescein group is removed, therefore, no fluorescent signal can be detected. […] Serial two-fold dilutions of each compound are prepared. A concentrated, activated enzyme solution is transferred into each plate of the testing compounds, and the mixture is incubated at room temperature for 15 minutes.
Chain of Stromelysin (P08254 100-477): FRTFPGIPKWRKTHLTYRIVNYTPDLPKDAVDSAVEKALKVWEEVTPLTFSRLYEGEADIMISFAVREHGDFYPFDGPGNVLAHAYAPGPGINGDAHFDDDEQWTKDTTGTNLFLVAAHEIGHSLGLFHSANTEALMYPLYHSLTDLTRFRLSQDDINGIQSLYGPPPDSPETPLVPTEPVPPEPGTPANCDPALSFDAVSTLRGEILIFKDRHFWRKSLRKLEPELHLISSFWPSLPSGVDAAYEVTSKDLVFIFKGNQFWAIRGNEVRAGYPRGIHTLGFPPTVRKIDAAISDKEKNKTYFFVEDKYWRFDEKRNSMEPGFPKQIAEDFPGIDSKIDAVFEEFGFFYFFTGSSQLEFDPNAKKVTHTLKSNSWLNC

Turning to `CC(C)C[C@@]1([C@@H](CCN2C(=O)c3ccccc3C2=O)C(=O)NO)CCN(CCc2ccccc2)C1=O` (relative stereo) [Example 4, α-[2-(1,3-Dihydro-1,3-dioxo-2H-isoindol-2-yl)ethyl]-N-hydroxy-3-(2-methylpropyl)-2-oxo-1-(2-phenylethyl)-3-pyrrolidineacetamide], the Ki at Collagenase was found to be 5700 nM; at Gelatinase it was 204 nM.

Consider `CC(C)C[C@@]1([C@@H](CCN2C(=O)c3ccc(N)cc3C2=O)C(=O)NO)CCN(CCc2ccccc2)C1=O` (relative stereo) [Example 9, α-[2-(5-Amino-1,3-dihydro-1,3-dioxo-2H-isoindol-2-yl)ethyl]-N-hydroxy-3-(2-methylpropyl)-2-oxo-1-(2-phenylethyl)-3-pyrrolidineacetamide], for which the results for the inhibitory constant (Ki) at Collagenase, on Stromelysin and at Gelatinase were 14300 nM, 903 nM and 780 nM, respectively.

For `CC(C)C[C@@]1([C@@H](CCN2C(=O)c3ccc([N+](=O)[O-])cc3C2=O)C(=O)NO)CCN(CCc2ccccc2)C1=O` (relative stereo) [Example 11, N-Hydroxy-3-(2-methylpropyl)-α-[2-(5-nitro-1,3-dihydro-1,3-dioxo-2H-isoindol-2-yl)ethyl]-2-oxo-1-(2-phenylethyl)-3-pyrrolidineacetamide], the inhibitory constant (Ki) on Collagenase stood at 73 nM; on Stromelysin, 1020 nM; at Gelatinase, 498 nM.

Regarding `CC(C)C[C@@]1([C@@H](CCN2C(=O)c3ccc(F)cc3C2=O)C(=O)NO)CCN(CCc2ccccc2)C1=O` (relative stereo) [Example 14, α-[2-(5-Fluoro-1,3-dihydro-1,3-dioxo-2H-isoindol-2-yl)ethyl]-N-hydroxy-3-(2-methylpropyl)-2-oxo-1-(2-phenylethyl)-3-pyrrolidineacetamide], the figures for the Ki on Collagenase, at Stromelysin and at Gelatinase were 533 nM, 46 nM and 97 nM, respectively.

On to `CC(C)C[C@@]1([C@@H](CCCN2C(=O)c3ccccc3C2=O)C(=O)NO)CCN(CCc2ccccc2)C1=O` (relative stereo) [Example 15], for which the inhibition constant Ki is 21300 nM at Collagenase, 188 nM at Stromelysin and 782 nM at Gelatinase.

Consider `CC(C)C[C@@]1([C@@H](CN2C(=O)c3ccccc3C2=O)C(=O)NO)CCN(CCc2ccccc2)C1=O` (relative stereo) [Example 16, α-[2-(1,3-Dihydro-1,3-dioxo-2H-isoindol-2-yl)methyl]-N-hydroxy-3-(2-methylpropyl)-2-oxo-1-(2-phenylethyl)-3-pyrrolidineacetamide], for which the results for the Ki on Collagenase, on Stromelysin and on Gelatinase were 14200 nM, 92.4 nM and 2870 nM, respectively.

As to `CC(C)C[C@@]1([C@@H](CCN2C(=O)c3ccccc3C2=O)C(=O)NO)CCN(Cc2ccccc2)C1=O` (relative stereo) [Example 22, α-[2-(1,3-Dihydro-1,3-dioxo-2H-isoindol-2-yl)ethyl]-N-hydroxy-3-(2-methylpropyl)-2-oxo-1-(phenylmethyl)-3-pyrrolidineacetamide], the values for the Ki at Collagenase, at Stromelysin and at Gelatinase were 2070 nM, 1960 nM and 1300 nM, respectively.

For `CC(C)C[C@@]1([C@@H](CCN2C(=O)c3ccccc3C2=O)C(=O)NO)CCN(Cc2cccc(F)c2)C1=O` (relative stereo) [Example 25], the Ki on Collagenase was determined as 1900 nM; on Stromelysin it was 649 nM; on Gelatinase it was 1280 nM.

For the compound `CNC(=O)[C@H](Cc1ccccc1)N1CC[C@@](CC(C)C)([C@@H](CCN2C(=O)c3ccccc3C2=O)C(=O)NO)C1=O` (relative stereo) [Example 29, [R,R-(R*,R*)]-α^3-[2-(1,3-Dihydro-1,3-dioxo-2H-isoindol-2-yl)ethyl]-N^3-hydroxy-N^1-methyl-3-(2-methylpropyl)-2-oxo-α^1-(phenylmethyl)-1,3-pyrrolidinediacetamide], the Ki was 484 nM on Collagenase, 570 nM at Stromelysin and 981 nM at Gelatinase.

Consider `CC(C)C[C@@]1(CC(=O)NO)CCN([C@@H](Cc2ccccc2)C(=O)N2C[C@@H](C)N[C@@H](C)C2)C1=O` (relative stereo) [Example 56, [1(1S)-[1[R*(R*)],3α,5α]]-1-[2-(3,5-Dimethyl-1-piperazinyl)-2-oxo-1-(phenylmethyl)ethyl]-N-hydroxy-3-(2-methylpropyl)-2-oxo-3-pyrrolidineacetamide], for which the inhibition constant (Ki) on Collagenase was 925 nM; on Stromelysin, 2300 nM; on Gelatinase, 340 nM.

Turning to `CC(C)C[C@@]1(CC(=O)NO)CCN([C@H](C(=O)NCC2CC2)C2CCCCC2)C1=O` (relative stereo) [Example 59, [S-(R*,R*)]-α^1 -Cyclohexyl-N^1-cyclopropylmethyl-N^3-hydroxy-3-(2-methylpropyl)-2-oxo-1,3-pyrrolidinediacetamide], the inhibition constant (Ki) amounted to 3.3 nM at Collagenase, 230 nM at Stromelysin and 11 nM at Gelatinase.

`CC(C)C[C@@]1([C@@H](CCN2C(=O)c3ccc(C(F)(F)F)cc3C2=O)C(=O)NO)CCN(CCc2ccccc2)C1=O` (relative stereo) [Example 65, N-Hydroxy-3-(2-methylpropyl)-2-oxo-1-(2-phenylethyl)-α-[2-(5-trifluoromethyl-1,3-dihydro-1,3-dioxo-2H-isoindol-2-yl)ethyl]-3-pyrrolidineacetamide]: the Ki on Collagenase came to 510 nM; on Stromelysin, 1050 nM; at Gelatinase it was 227 nM.

For `CC(C)C[C@@]1([C@@H](CCN2C(=O)c3ccccc3C2=O)C(=O)NO)CCN(CCCc2ccccc2)C1=O` (relative stereo) [Example 67, α-[2-(1,3-Dihydro-1,3-dioxo-2H-isoindol-2-yl)ethyl]-N-hydroxy-3-(2-methylpropyl)-2-oxo-1-(3-phenylpropyl)-3-pyrrolidineacetamide], the Ki is 5000 nM on Collagenase, 216 nM at Stromelysin and 36 nM on Gelatinase.

Turning to `CC(C)C[C@@]1([C@@H](CCN2C(=O)c3ccccc3C2=O)C(=O)NO)CCN(CCc2ccc(F)cc2)C1=O` (relative stereo) [Example 68, 1-[2-(4-Fluorophenyl)ethyl]-α-[2-(1,3-dihydro-1,3-dioxo-2H-isoindol-2-yl)ethyl]-N-hydroxy-3-(2-methylpropyl)-2-oxo-3-pyrrolidineacetamide], the inhibition constant Ki at Collagenase was 1460 nM; at Stromelysin it was 350 nM; on Gelatinase it was 160 nM.

Turning to `CC(C)C[C@@]1([C@@H](CCN2C(=O)c3ccccc3S2(=O)=O)C(=O)NO)CCN(CCc2ccccc2)C1=O` (relative stereo) [Example 69, α-[2-(o-benzoic sulfimide)ethyl]-N-hydroxy-3-(2-methylpropyl)-2-oxo-1-(2-phenylethyl)3-pyrrolidineacetamide], the Ki on Collagenase was 1200 nM; on Stromelysin, 214 nM; at Gelatinase it was 498 nM.

In the case of `CCOC(=O)N(CC[C@@H](C(=O)NO)[C@]1(CC(C)C)CCN(CCc2ccccc2)C1=O)C(=O)OCc1ccccc1` (relative stereo) [Example 70, Ethyl Phenylmethyl[4-(hydroxyamino)-3-[3-(2-methylpropyl)-2-oxo-1-(2-phenylethyl)-3-pyrrolidinyl]-4-oxobutyl]imidodicarbonate], the Ki on Collagenase stood at 1200 nM; at Stromelysin it was 194 nM.

In the case of `CC(C)C[C@@]1([C@@H](CCNC(=O)c2cccc(F)c2)C(=O)NO)CCN(CCc2ccccc2)C1=O` (relative stereo) [Example 77, α-[2-[(3-Fluorobenzoyl)amino]ethyl]-N-hydroxy-3-(2-methylpropyl)-2-oxo-1-(2-phenylethyl)-3-pyrrolidineacetamide], the Ki at Collagenase worked out at 68.5 nM; on Stromelysin it was 146 nM.

On to `CC(C)C[C@@]1([C@@H](CCN2C(=O)c3ccccc3C2=O)C(=O)NO)CCN(CCc2ccccc2)C1=O` [Example 5, (3S)-α-[2-(1,3-Dihydro-1,3-dioxo-2H-isoindol-2-yl)ethyl]-N-hydroxy-3-(2-methylpropyl)-2-oxo-1-(2-phenylethyl)-3-pyrrolidineacetamide], for which the Ki is 4370 nM on Collagenase and 115 nM on Gelatinase.
